# Experimental data as given in patent US9695155B2, “Herbicidal substituted pyrimidinyloxy benzene compounds” (E. I. DU PONT DE NEMOURS AND COMPANY, priority 2013, dated 2017).
# How the values were obtained:
# blackgrass = experiment: Test C postemergence; format: in vivo, Alopecurus myosuroides
# How it was run: (§1)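 Sown in loam/sand → sprayed pre-emergence; or grown to 1–4 leaves in peat mix → sprayed post-emergence. Same solvent/surfactant formulation both ways. Greenhouse 13–15 d. Score 0–100 visual.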
# ragweed = experiment: Test C postemergence; format: in vivo, Ambrosia elatior; conditions: for Ragweed plant response rating: 31 g ai/ha
# How it was run: as §1
# barnyardgrass [1] = experiment: Test A preemergence; format: in vivo, Echinochloa crus-galli; conditions: for Barnyardgrass plant response rating (0 to 100 scale, 0 is no effect, 100 is complete control): 125 g ai/ha
# How it was run: (§2)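 Greenhouse pot test, loam/sand soil. Formulation: non-phytotoxic solvent mix plus surfactant. Pre: directed spray onto soil after sowing. Post: plants at 1–2 leaf, 2–10 cm. Rated visually vs untreated controls at ~10 d, 0 (no effect) to 100 (complete control).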
# wheat = experiment: Test A postemergence; format: in vivo, Triticum aestivum; conditions: 0 to 100 scale, 0 no effect, 100 complete control
# How it was run: as §2
# velvetleaf = experiment: Test C postemergence; format: in vivo, Abutilon theophrasti; conditions: for Velvetleaf plant response rating: 31 g ai/ha
# How it was run: as §1
# pigweed [2] = experiment: Test A preemergence; format: in vivo, Amaranthus retroflexus; conditions: for Pigweed plant response rating (0 to 100 scale): 125 g ai/ha
# How it was run: as §2
# morningglory = experiment: Test C postemergence; format: in vivo, Ipomoea coccinea; conditions: for Morningglory plant response rating: 31 g ai/ha
# How it was run: as §1
# Heteranthera limosa = experiment: Test B flooded paddy test; format: in vivo; conditions: Flood, 250 g ai/ha, 0 to 100 scale where 0 is no effect and 100 is complete control
# How it was run: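 Greenhouse flooded-pot test: compounds dosed into 3 cm standing water over 2-leaf plants, flood held constant. Rated visually after 13–15 days on 0–100 (complete control = 100); a dash marks no test result.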
# barnyardgrass [3] = experiment: Test C postemergence; format: in vivo, Echinochloa crus-galli
# How it was run: as §1
# kochia = experiment: Test C postemergence; format: in vivo, Kochia scoparia
# How it was run: as §1
# pigweed [4] = experiment: Test C postemergence; format: in vivo, Amaranthus retroflexus; conditions: for Pigweed plant response rating: 31 g ai/ha
# How it was run: as §1
# wild oat = experiment: Test C postemergence; format: in vivo, Avena fatua; conditions: for Oat, Wild plant response rating: 31 g ai/ha
# How it was run: as §1
# [5] = postemergence, visual rating, scale 0 to 100 (0 no effect, 100 complete control), 13 to 15 days
# [6] = 16 g ai/ha, postemergence, 0 is no effect, 100 is complete control
# [7] = 31 g ai/ha, postemergence, visual rating, scale 0 to 100 (0 no effect, 100 complete control), 13 to 15 days
# [8] = 125 g ai/ha, postemergence, visual rating, scale 0 to 100 (0 no effect, 100 complete control)
# [9] = Postemergence, 62 g ai/ha, scale 0 to 100 (0 no effect, 100 complete control), 13 to 15 days
# [10] = 31 g ai/ha, 0 to 100 scale where 0 is no effect and 100 is complete control, visual, approximately 10 days
smiles,measurement,setting,value
"N#Cc1cccc(Oc2ncc(Cl)cn2)c1-n1cc(C(F)F)cn1 [Compound 253, 3-(5-chloropyrimidin-2-yl)oxy-2-[4-(difluoromethyl)-1H-pyrazol-1-yl]benzonitrile]",pest or weed control at 16 g/ha,"blackgrass; Alopecurus myosuroides, post-emergence, 16 g ai/ha, postemergence, 0 is no effect, 100 is complete control, read-out: Plant response rating (0 to 100), Blackgrass",0%
same,pest or weed control at 31 g/ha,"blackgrass; Alopecurus myosuroides, post-emergence, 31 g ai/ha, postemergence, visual rating, scale 0 to 100 (0 no effect, 100 complete control), 13 to 15 days, read-out: Blackgrass plant response rating",0%
same,pest or weed control at 125 g/ha,"blackgrass; Alopecurus myosuroides, post-emergence, 125 g ai/ha, postemergence, visual rating, scale 0 to 100 (0 no effect, 100 complete control), read-out: Plant response rating, Blackgrass",10%
same,pest or weed control at 62 g/ha,"blackgrass; Alopecurus myosuroides, post-emergence, Postemergence, 62 g ai/ha, scale 0 to 100 (0 no effect, 100 complete control), 13 to 15 days, read-out: Plant response rating, Blackgrass",0%
same,Ragweed plant response rating,ragweed; [5],45
same,pest or weed control at 16 g/ha,"ragweed; Ambrosia artemisiifolia, post-emergence, 16 g ai/ha, postemergence, 0 is no effect, 100 is complete control, read-out: Plant response rating (0 to 100), Ragweed",20%
same,pest or weed control at 125 g/ha,"ragweed; Ambrosia artemisiifolia, post-emergence, 125 g ai/ha, postemergence, visual rating, scale 0 to 100 (0 no effect, 100 complete control), read-out: Plant response rating, Ragweed",80%
same,pest or weed control at 62 g/ha,"ragweed; Ambrosia artemisiifolia, post-emergence, Postemergence, 62 g ai/ha, scale 0 to 100 (0 no effect, 100 complete control), 13 to 15 days, read-out: Plant response rating, Ragweed",55%
same,"Barnyardgrass plant response rating (0 to 100 scale, 0 is no effect, 100 is complete control)",barnyardgrass [1],100
same,pest or weed control at 31 g/ha,"barnyardgrass [1]; Echinochloa crus-galli, pre-emergence, 240 h, 31 g ai/ha, 0 to 100 scale where 0 is no effect and 100 is complete control, visual, approximately 10 days, read-out: Plant response rating, Barnyardgrass",50%
same,plant injury at 31 g/ha,"wheat; Triticum aestivum, post-emergence, 240 h, 31 g ai/ha, read-out: Plant response rating, Wheat",20%
same,plant injury at 125 g/ha,"wheat; Triticum aestivum, post-emergence, 240 h, 125 g ai/ha, read-out: Plant response rating, Wheat",30%
same,Velvetleaf plant response rating,velvetleaf; [5],70
same,pest or weed control at 16 g/ha,"velvetleaf; Abutilon theophrasti, post-emergence, 16 g ai/ha, postemergence, 0 is no effect, 100 is complete control, read-out: Plant response rating (0 to 100), Velvetleaf",30%
same,pest or weed control at 125 g/ha,"velvetleaf; Abutilon theophrasti, post-emergence, 125 g ai/ha, postemergence, visual rating, scale 0 to 100 (0 no effect, 100 complete control), read-out: Plant response rating, Velvetleaf",85%
same,pest or weed control at 62 g/ha,"velvetleaf; Abutilon theophrasti, post-emergence, Postemergence, 62 g ai/ha, scale 0 to 100 (0 no effect, 100 complete control), 13 to 15 days, read-out: Plant response rating, Velvetleaf",70%
same,Pigweed plant response rating (0 to 100 scale),pigweed [2],100
same,pest or weed control at 31 g/ha,"pigweed [2]; Amaranthus retroflexus, pre-emergence, 240 h, 31 g ai/ha, 0 to 100 scale where 0 is no effect and 100 is complete control, visual, approximately 10 days, read-out: Plant response rating, Pigweed",100%
same,Morningglory plant response rating,morningglory; [5],75
same,pest or weed control at 16 g/ha,"morningglory; Ipomoea, post-emergence, 16 g ai/ha, postemergence, 0 is no effect, 100 is complete control, read-out: Plant response rating (0 to 100), Morningglory",60%
same,pest or weed control at 125 g/ha,"morningglory; Ipomoea, post-emergence, 125 g ai/ha, postemergence, visual rating, scale 0 to 100 (0 no effect, 100 complete control), read-out: Plant response rating, Morningglory",85%
same,pest or weed control at 62 g/ha,"morningglory; Ipomoea, post-emergence, Postemergence, 62 g ai/ha, scale 0 to 100 (0 no effect, 100 complete control), 13 to 15 days, read-out: Plant response rating, Morningglory",75%
same,pest or weed control at 250 g/ha,"Heteranthera limosa; Heteranthera limosa, read-out: Plant response rating, Ducksalad",75%
same,pest or weed control at 16 g/ha,"barnyardgrass [3]; Echinochloa crus-galli, post-emergence, 16 g ai/ha, postemergence, 0 is no effect, 100 is complete control, read-out: Plant response rating (0 to 100), Barnyardgrass",5%
same,pest or weed control at 31 g/ha,"barnyardgrass [3]; Echinochloa crus-galli, post-emergence, 31 g ai/ha, postemergence, visual rating, scale 0 to 100 (0 no effect, 100 complete control), 13 to 15 days, read-out: Barnyardgrass plant response rating",5%
same,pest or weed control at 125 g/ha,"barnyardgrass [3]; Echinochloa crus-galli, post-emergence, 125 g ai/ha, postemergence, visual rating, scale 0 to 100 (0 no effect, 100 complete control), read-out: Plant response rating, Barnyardgrass",20%
same,pest or weed control at 62 g/ha,"barnyardgrass [3]; Echinochloa crus-galli, post-emergence, Postemergence, 62 g ai/ha, scale 0 to 100 (0 no effect, 100 complete control), read-out: Plant response rating, Barnyardgrass",10%
same,pest or weed control at 16 g/ha,"kochia; Bassia scoparia, post-emergence, 16 g ai/ha, postemergence, 0 is no effect, 100 is complete control, read-out: Plant response rating (0 to 100), Kochia",80%
same,pest or weed control at 31 g/ha,"kochia; Bassia scoparia, post-emergence, 31 g ai/ha, postemergence, visual rating, scale 0 to 100 (0 no effect, 100 complete control), 13 to 15 days, read-out: Kochia plant response rating",98%
same,pest or weed control at 125 g/ha,"kochia; Bassia scoparia, post-emergence, 125 g ai/ha, postemergence, visual rating, scale 0 to 100 (0 no effect, 100 complete control), read-out: Plant response rating, Kochia",100%
same,pest or weed control at 62 g/ha,"kochia; Bassia scoparia, post-emergence, Postemergence, 62 g ai/ha, scale 0 to 100 (0 no effect, 100 complete control), 13 to 15 days, read-out: Plant response rating, Kochia",100%
same,Pigweed plant response rating,pigweed [4]; [5],85
same,pest or weed control at 16 g/ha,"pigweed [4]; Amaranthus retroflexus, post-emergence, 16 g ai/ha, postemergence, 0 is no effect, 100 is complete control, read-out: Plant response rating (0 to 100), Pigweed",85%
same,pest or weed control at 125 g/ha,"pigweed [4]; Amaranthus retroflexus, post-emergence, 125 g ai/ha, postemergence, visual rating, scale 0 to 100 (0 no effect, 100 complete control), read-out: Plant response rating, Pigweed",95%
same,pest or weed control at 62 g/ha,"pigweed [4]; Amaranthus retroflexus, post-emergence, Postemergence, 62 g ai/ha, scale 0 to 100 (0 no effect, 100 complete control), 13 to 15 days, read-out: Plant response rating, Pigweed",98%
same,"Oat, Wild plant response rating",wild oat; [5],0
same,pest or weed control at 16 g/ha,"wild oat; Avena fatua, post-emergence, 16 g ai/ha, postemergence, 0 is no effect, 100 is complete control, read-out: Plant response rating (0 to 100), Oat, Wild",0%
same,pest or weed control at 125 g/ha,"wild oat; Avena fatua, post-emergence, 125 g ai/ha, postemergence, visual rating, scale 0 to 100 (0 no effect, 100 complete control), read-out: Plant response rating, Oat, Wild",10%
same,pest or weed control at 62 g/ha,"wild oat; Avena fatua, post-emergence, Postemergence, 62 g ai/ha, scale 0 to 100 (0 no effect, 100 complete control), 13 to 15 days, read-out: Plant response rating, Oat, Wild",10%
FC(F)Oc1cnn(-c2c(Cl)cccc2Oc2ncc(Cl)cn2)c1 [Compound 258],"Plant response rating (0 to 100), Blackgrass",blackgrass; [6],0
same,Blackgrass plant response rating,blackgrass; [7],5
same,"Plant response rating, Blackgrass",blackgrass; [8],10
same,"Plant response rating, Blackgrass",blackgrass; [9],5
same,"Plant response rating (0 to 100), Ragweed",ragweed; [6],25
same,Ragweed plant response rating,ragweed; [5],50
same,"Plant response rating, Ragweed",ragweed; [8],75
same,"Plant response rating, Ragweed",ragweed; [9],50
same,"Plant response rating, Barnyardgrass",barnyardgrass [1]; [10],50
same,"Barnyardgrass plant response rating (0 to 100 scale, 0 is no effect, 100 is complete control)",barnyardgrass [1],90
same,"Plant response rating, Wheat",wheat; 31 g ai/ha,0
same,"Plant response rating, Wheat",wheat; 125 g ai/ha,50
same,"Plant response rating (0 to 100), Velvetleaf",velvetleaf; [6],55
same,Velvetleaf plant response rating,velvetleaf; [5],65
same,"Plant response rating, Velvetleaf",velvetleaf; [8],80
same,"Plant response rating, Velvetleaf",velvetleaf; [9],75
same,"Plant response rating, Pigweed",pigweed [2]; [10],100
same,Pigweed plant response rating (0 to 100 scale),pigweed [2],100
same,"Plant response rating (0 to 100), Morningglory",morningglory; [6],65
same,Morningglory plant response rating,morningglory; [5],85
same,"Plant response rating, Morningglory",morningglory; [8],95
same,"Plant response rating, Morningglory",morningglory; [9],85
same,"Plant response rating, Ducksalad",Heteranthera limosa,100
same,"Plant response rating (0 to 100), Barnyardgrass",barnyardgrass [3]; [6],5
same,Barnyardgrass plant response rating,barnyardgrass [3]; [7],10
same,"Plant response rating, Barnyardgrass",barnyardgrass [3]; [8],10
same,"Plant response rating, Barnyardgrass",barnyardgrass [3]; [9],10
same,"Plant response rating (0 to 100), Kochia",kochia; [6],90
same,Kochia plant response rating,kochia; [7],95
same,"Plant response rating, Kochia",kochia; [8],100
same,"Plant response rating, Kochia",kochia; [9],100
same,"Plant response rating (0 to 100), Pigweed",pigweed [4]; [6],75
same,Pigweed plant response rating,pigweed [4]; [5],85
same,"Plant response rating, Pigweed",pigweed [4]; [8],90
same,"Plant response rating, Pigweed",pigweed [4]; [9],85
same,"Plant response rating (0 to 100), Oat, Wild",wild oat; [6],5
same,"Oat, Wild plant response rating",wild oat; [5],5
same,"Plant response rating, Oat, Wild",wild oat; [8],15
same,"Plant response rating, Oat, Wild",wild oat; [9],10
